What was measured:
[1] = test system: SK-N-MC (neuroepithelioma) cells; test: MTT assay of cell viability, SK-N-MC; assay type: cell-based; conditions: 48 h exposure, in the presence of human holotransferrin
Description: (§1) The present inventors have also investigated the antiproliferative activity of series of pro-chelators and chelators of the invention towards human cell lines. MTT assays of cell viability (Table 1) were performed on two cancer cell lines, neuroepithelioma SK-N-MC and breast adenocarcinoma MDA-MB-231, which are well studied in the context of iron deprivation. The established antiproliferative iron chelator DFO was used as a control and its toxicity profiles compared well to literature ones for these cell lines. Viability measurements were conducted in the presence of human holotransferrin in order to load intracellular iron pools and assess antiproliferative activity related to intracellular iron deprivation.
(§2) MDA-MB-231 (ATCC® HTB-26™) breast adenocarcinoma cells and SK-N-MC (ATCC® HTB-10™) neuroepithelioma cells were cultured under a 5% CO2 humidified atmosphere at 37° C. in Eagle's Minimal Essential Medium (EMEM) supplemented with 10% fetal bovine serum (FBS), glutamine (2 mM), sodium pyruvate (1 mM), sodium bicarbonate ([…]), penicillin (100 units/mL), streptomycin (100 μg/mL) and 1.25 μM (1 mg/10 mL) human holo-transferrin (Aldrich) prior to use. Jurkat T lymphocytes (ATCC® T1B-152™) were cultured at 37° C. under a 5% CO2 humidified atmosphere in RPMI 1640 media supplemented with 10% FBS, penicillin (5 mg/ml) and streptomycin (1 mg/ml), and maintained at a density lower than 2.0×10^6 cells/mL.

[2] = test system: MDA-MB-231 (breast adenocarcinoma) cells; test: MTT assay of cell viability, MDA-MB-231; assay type: cell-based; conditions: in the presence of human holotransferrin
Description: as §1, §2

[3] = test system: MRC-5 (normal lung fibroblast) cells; test: MTT assay of cell viability, MRC-5; assay type: cell-based, human; conditions: for IC50: MTT assay, 72 h exposure; for toxicity in normal lung fibroblasts (comparison): normal cells
Description: as §1
Because normal cells divide at a lower rate, MTT assays were performed after exposures of 48 h and also 72 h (Table 1).

[4] = Reduction by GSH monitored by UV-visible absorption spectroscopy; assay type: physicochemical; conditions: GSH 11.0 mM
Description: FIG. 2 is a graph showing reduction of (TC1-S)2 (9.0 μM) by GSH (11.0 mM) as monitored by UV-visible absorption spectroscopy in buffered aqueous solution (50 mM PIPES, pH 7.4) at 25° C. Spectral changes during the reduction of (TC1-S)2 (Line 2, […]) to TC1-SH (Line 1) by GSH (11.0 mM). The reaction goes to substantial completion within 2 h.
The reduction of (TC1-S)2 can be monitored in vitro by UV-visible absorption spectroscopy. FIG. 2.

[5] = Equilibration in GSH/GSSG redox buffer solutions at different half-cell potentials; assay type: physicochemical; conditions: half-cell potentials of −220 mV or lower (vs SHE); 12.5 μM disulfide, 11-13 mM total glutathione, 2 h
Description: FIG. 3 is a graph showing the fraction of reduced chelator TC1-SH obtained from UV-visible absorption data in GSH/GSSG redox buffer solutions at different half-cell potentials. Total ([GSH]+[GSSG]) was maintained at 11-13 mM, whereas initial [(TC1-S)2] was 12.5 μM. Samples were allowed to equilibrate for 2 h. Data points are plotted as average of triplicate measurements±standard deviation.
In order to estimate the speciation of the prochelator/chelator system in solutions containing glutathione levels reflecting biologically relevant conditions, disulfide (TC1-S)2 was allowed to equilibrate in a series of redox buffer mixtures. The half-cell potentials for the solutions were calculated based on the concentrations of GSH and GSSG and they were selected to include values from those typically associated to proliferating cells (−240 mV vs SHE) to those found in necrotic cells (−180 mV). […] FIG. 3. As such, in this model of intracellular conditions containing micromolar chelation system and millimolar glutathione buffer, the chelation system after equilibration was found prevalently in its reduced iron-binding form at glutathione half-cell potentials that are characteristic of proliferating and malignant cells.

MDA-MB-231 cells [6] = test: Effect of NAC supplementation on toxicity (viability assay); assay type: cell-based, human; conditions: 10.0 μM compound, 48 h, after 6 h NAC
Description: FIG. 4 is a bar graph showing the effect of N-acetyl cystein (NAC) supplementation on the toxicity of DFO (10 μM) and (TC1-S)2 (10 μM). MDA-MB-231 cells were incubated with NAC for 6 h before treatment with DFO (10.0 μM) or (TC1-S)2 (10.0 μM) for 48 h. Percent viability is expressed relative to control treated with DMSO and averaged over three experiments±percent standard deviation.
The control of reducing conditions employed in vitro in the experiments summarized above cannot be achieved in cell culture; nevertheless, the intracellular concentration of GSH can be increased by supplementing with N-acetyl cysteine (NAC), a precursor required for GSH biosynthesis. […] FIG. 4.

Jurkat cells = test: Calcein-AM fluorescence assay of intracellular iron binding; assay type: cell-based, human; conditions: suspended Jurkat cells loaded with calcein; SIH added after (TC1-S)2
From the text: FIG. 5 is a graph showing displacement of paramagnetic ions and restoration of calcein fluorescence by addition of chelators (TC1-S)2 and SIH at the indicated times and final concentrations in suspended Jurkat cell cultures. Fluorescence intensity at 517 nm (excitation, 488 nm) is plotted as the difference from the initial values before any addition. DMSO concentration was kept constant in all solutions.
Intracellular iron binding was first examined using calcein-AM, the acetoxymethyl ester of a fluorescein-based sensor of metal ions in biological specimens. Trapped intracellularly upon hydrolysis of the ester groups by esterases, calcein coordinates iron and possibly other (far less abundant) cations (e.g., Cu(II) and Zn(II)). Calcein stabilizes ferric iron coordination and this paramagnetic ion quenches considerably its fluorescence emission.

[7] = test system: ribonucleotide reductase (RNR) tyrosyl radical in Jurkat cells; test: Whole-cell EPR of the tyrosyl radical of ribonucleotide reductase; assay type: cell-based, human; conditions: 50 μM
Description: FIG. […] Experimental conditions: microwave frequency, 9.338 GHz; microwave power, 2 mW; magnetic field modulation amplitude, 0.5 mT; temperature, 30° K.
EPR data were also used to examine the effect of chelation system on the tyrosyl radical that characterizes the active site of ribonucleotide reductase (RNR), the iron-dependent enzyme that is believed to be essential in DNA biosynthesis.

MDA-MB-231 cells [8] = test: Intracellular ROS generation, oxidation of DCFH2 to DCF; assay type: cell-based, human; conditions: 30 min incubation, compared to H2O2 (100 μM) positive control
Description: FIG. 8 is a bar graph showing intracellular generation of ROS monitored through the oxidation of DCFH2 to fluorescent DCF (ex: 485 nm, em: 528 nm). MDA-MB-231 cells were treated with DCFH2-DA (10 μM, 10 min), washed and then incubated with test compounds (concentrations as shown, 30 min). H2O2 (100 μM) was employed as a positive control. Measurements were conducted in triplicate and reported as average±standard deviation.
The in-vitro results above were confirmed in cultures of MBA-MD-231 breast carcinoma cells using a fluorescence-based assay of ROS generation. Added to the growth media, cell-permeable dihydrodichlorofluorescein diacetate (DCFH2-DA) was hydrolized intracellularly to trap the probe dihydrodichlorofluorescein (DCFH2), which was oxidized by several ROS to give the bright fluorescent product dichlorofluorescein. […] FIG. 8.

[9] = Cyclic voltammetry in DMF; assay type: physicochemical; conditions: glassy carbon electrode
From the text: FIG. 10 is a cyclic voltammograms of disulfides 1a-c at a glassy carbon electrode in DMF with (n-Bu4N)(PF6) as supporting electrolyte. Data collected at a 100 mVS^−1 sweep rate using Ag/AgNO3 reference electrode and a platinum wire auxiliary electrode.
The reduction of disulfides 1a-c was investigated by electrochemical methods in N,N-dimethylformamide. FIG. 10. The collected cyclic voltammograms present irreversible cathodic peaks that are characteristic of aromatic disulfide reduction and correspond to the two-electron reductive process leading to formation of two thiolate ions. Consistent with reported electronic effects of substituents in aromatic disulfides, peak reduction potentials of compounds 1a-c vary considerably with the substitution on the thiosemicarbazone unit. […] These experiments established that electronic effects of the partially conjugated chelating units modulate the thermodynamic drive to reduction of disulfide constructs. Similarly, it is expected that an electron withdrawing group substituent on the phenyl ring itself (e.g., R^3 and/or R^4 in Formula I) will also result in lower reduction potential. As used herein, the term “electron withdrawing group” refers to any substituent that draws electron density away from a given center (e.g., disulfide or thiol group in compounds 1a-c and 2a-c, respectively). […]

[10] = Iron coordination with Fe(BF4)2.6H2O; assay type: binding; conditions: organic solvents and buffered aqueous solutions
From the text: Consistent with the modest coordinating ability of disulfide linkages in general and the conformational restraints they impose on the joint thiosemicarbazone units in this case, disulfides 1a-c behave as masked pro-chelators of low iron coordinating ability.
Conversely, thiols 2a-c react readily with Fe(BF4)2.6H2O in organic solvents and in buffered aqueous solutions. From reactions in THF, iron complexes 3a-c were isolated by crystallization and characterized by high-resolution mass spectrometry and elemental analysis. Complexes 3a (FIG. 11) and 3b were also characterized by single crystal X-ray diffraction analysis.

[11] = clinical trials terminated; cited from earlier work

For NC(=S)NN=Cc1ccccc1SSc1ccccc1C=NNC(N)=S [Compound 1a], the IC50 [1] was 8.91 ± 0.09 µM and the IC50 ([2]; 48 h exposure) was 22.07 ± 0.04 µM.

Work on S=C(NN=Cc1ccccc1SSc1ccccc1C=NNC(=S)Nc1ccccc1)Nc1ccccc1 [Compound 1c] yielded an IC50 [1] of 6.81 ± 0.17 µM, an IC50 ([2]; 48 h exposure) of 4.59 ± 0.06 µM and an IC50 ([2]; 48 h exposure, listed as (TC1-S)2) of 4.6 µM. For the same compound, the IC50 [3] was 30.91 ± 0.02 µM, the “toxicity in normal lung fibroblasts (comparison)” value [3] was “significantly less toxic than its corresponding thiol 2c” and the “toxicity in normal lung fibroblasts (comparison)” value ([3]; listed as (TC1-S)2) was “significantly less toxic than DFO”. The “time to substantial completion of reduction to TC1-SH” value ([4]; 9.0 μM disulfide, 50 mM PIPES, pH 7.4, 25° C.) was ≤ 2 h, the “conversion of disulfide to thiol” value ([4]; neutral buffered aqueous solution, 9.0 μM) was “converted substantially quantitatively” and the “estimated equilibrium percentage of thiol” value [5] was “greater than 80%”. The “effect of increasing NAC on toxicity” value (MDA-MB-231 cells [6]) was “more susceptible”, the calcein fluorescence intensity (Jurkat cells) was “concentration-dependent increase in fluorescence intensity” and the “RNR tyrosyl radical EPR signal” value ([7]; 1 h) was “decrease in RNR signal amplitude”. For the same compound, the “intracellular generation of ROS (DCF fluorescence)” value (MDA-MB-231 cells [8]) was “did not elicit significant turn-on response” and the “ease of disulfide reduction (peak reduction potential)” value [9] was “easier to reduce compared to analogues 1a and 1b”.

S=C(NN=Cc1ccccc1S)Nc1ccccc1 [Compound 2c] showed an IC50 [1] of 5.19 ± 0.17 µM, an IC50 ([2]; 48 h exposure) of 15.01 ± 0.05 µM and an IC50 [3] of 15.08 ± 0.02 µM. The “stability of thiol in solution” value ([4]; neutral buffered aqueous solution) was “over 6 h”, the “intracellular generation of ROS (DCF fluorescence)” value (MDA-MB-231 cells [8]) was “did not elicit significant turn-on response” and the iron coordination [10] was “readily coordinates Fe(II) ions”.

For NC(=S)NN=Cc1ncccc1N [Compound 3-AP, 3-Aminopyridine-2-carboxaldehyde thiosemicarbazone], the adverse side effects [11] is given as “methemoglobinemia”.

Compound CC(=O)N(O)CCCCCNC(=O)CCC(=O)N(O)CCCCCNC(=O)CCC(=O)N(O)CCCCCN [DFO, desferrioxamine, reference compound] has an IC50 ([1]; SK-N-MC) of 10.02 ± 0.06 µM, an IC50 ([2]; Homo sapiens, MDA-MB-231, 48 h, 48 h exposure) of 17 µM and an IC50 ([2]; MDA-MB-231, 48 h exposure) of 17.05 ± 0.05 µM. The IC50 ([3]; Homo sapiens, MRC5) was 8.04 ± 0.03 µM, the “effect of increasing NAC on toxicity” value (MDA-MB-231 cells [6]) was “not affected significantly” and the “RNR tyrosyl radical EPR signal” value ([7]; 3 h) was “loss of signal”.

In the case of O=C(NN=Cc1ccccc1O)c1ccncc1 [SIH, salicylaldehyde isonicotinoyl hydrazone, reference compound], the calcein fluorescence intensity (Jurkat cells) is reported as “further increased fluorescence intensity”.

Source: patent US9486423B2, “Redox-directed chelators targeting intracellular metal ions” (THE ARIZONA BOARD OF REGENTS ON BEHALF OF THE UNIVERSITY OF …, priority 2014, dated 2016)
